According to patent US8802597B2, “Herbicidal pyrimidines” (E I du Pont de Nemours and Company, priority 2003, dated 2014):
Like-named read-outs stand apart in the source and are kept apart here.

Assays:
Assay in all cases: Test C pre/postemergence
Format in all cases: in vivo
[1] = tested on: Surinam grass (Brachiaria decumbens); settings: Urochloa decumbens; for pest or weed control at 125 g/ha: 125 g ai/ha; for pest or weed control at 31 g/ha: 31 g ai/ha; for pest or weed control at 62 g/ha: 62 g ai/ha; for pest or weed control at 250 g/ha: 250 g ai/ha
Procedure, shortened: (§1)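 We sprayed seeded pots preemergence and 2–18 cm seedlings postemergence with test chemicals in a non-phytotoxic solvent mixture including surfactant. Greenhouse plants were visually compared with untreated controls at 12 to 14 days and scored 0 (no effect) to 100 (complete control).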

[2] = tested on: common (oilseed) sunflower (Helianthus annuus); settings: Helianthus annuus, pre-emergence, Preemergence, read-out: Plant response rating, Sunflower
Procedure, shortened: as §1

[3] = tested on: common ragweed (Ambrosia elatior); settings: Ambrosia artemisiifolia; for pest or weed control at 31 g/ha: 31 g ai/ha; for pest or weed control at 62 g/ha: 62 g ai/ha; for pest or weed control at 125 g/ha: 125 g ai/ha; for pest or weed control at 250 g/ha: 250 g ai/ha
Procedure, shortened: as §1

[4] = tested on: giant foxtail (Setaria faberii); settings: Setaria faberi; for pest or weed control at 125 g/ha: 125 g ai/ha; for pest or weed control at 31 g/ha: 31 g ai/ha; for pest or weed control at 62 g/ha: 62 g ai/ha; for pest or weed control at 250 g/ha: 250 g ai/ha
Procedure, shortened: as §1

[5] = tested on: johnsongrass (Sorghum halepense); settings: Sorghum halepense; for pest or weed control at 31 g/ha: 31 g ai/ha; for pest or weed control at 62 g/ha: 62 g ai/ha; for pest or weed control at 125 g/ha: 125 g ai/ha; for pest or weed control at 250 g/ha: 250 g ai/ha
Procedure, shortened: as §1

kochia (Kochia scoparia) = settings: Bassia scoparia; for pest or weed control at 31 g/ha: 31 g ai/ha; for pest or weed control at 62 g/ha: 62 g ai/ha; for pest or weed control at 125 g/ha: 125 g ai/ha; for pest or weed control at 250 g/ha: 250 g ai/ha
Procedure, shortened: as §1

[6] = post-emergence, Postemergence, scale 0 to 100 (0 no effect, 100 complete control), read-out: Surinam Grass plant response rating
[7] = pre-emergence, Preemergence, scale 0 to 100, 0 no effect, 100 complete control, read-out: Plant response rating, Surinam Grass
[8] = pre-emergence, Preemergence, scale 0 to 100, read-out: Plant response rating, Surinam Grass
[9] = post-emergence, Postemergence, scale 0 to 100 (0 no effect, 100 complete control), read-out: Ragweed plant response rating
[10] = pre-emergence, Preemergence, scale 0 to 100, 0 no effect, 100 complete control, read-out: Plant response rating, Ragweed
[11] = pre-emergence, Preemergence, scale 0 to 100, read-out: Plant response rating, Ragweed
[12] = post-emergence, Postemergence, scale 0 to 100 (0 no effect, 100 complete control), read-out: Foxtail, Giant plant response rating
[13] = pre-emergence, Preemergence, scale 0 to 100, 0 no effect, 100 complete control, read-out: Plant response rating, Foxtail, Giant
[14] = pre-emergence, Preemergence, scale 0 to 100, read-out: Plant response rating, Foxtail, Giant
[15] = post-emergence, Postemergence, scale 0 to 100 (0 no effect, 100 complete control), read-out: Johnsongrass plant response rating
[16] = pre-emergence, Preemergence, scale 0 to 100, 0 no effect, 100 complete control, read-out: Plant response rating, Johnsongrass
[17] = pre-emergence, Preemergence, scale 0 to 100, read-out: Plant response rating, Johnsongrass
[18] = post-emergence, Postemergence, scale 0 to 100 (0 no effect, 100 complete control), read-out: Kochia plant response rating
[19] = pre-emergence, Preemergence, scale 0 to 100, 0 no effect, 100 complete control, read-out: Plant response rating, Kochia
[20] = pre-emergence, Preemergence, scale 0 to 100, read-out: Plant response rating, Kochia

Q: With `COC(=O)c1nc(C(C)C)nc(N)c1Br` [Compound 3] as the compound, how does the pest or weed control at 125 g/ha [1, 6] read?
A: 0%

Q: What about the pest or weed control at 31 g/ha ([1]; post-emergence, Postemergence, read-out: Plant response rating (scale of 0 to 100), Surinam Grass) of the same compound?
A: 0%

Q: And the pest or weed control at 62 g/ha [1, 6]?
A: 0%

Q: What about the pest or weed control at 250 g/ha ([1]; post-emergence, Postemergence, scale 0 to 100, read-out: Plant response rating, Surinam Grass) of the same compound?
A: 0%

Q: What about the pest or weed control at 31 g/ha [1, 7] of the same compound?
A: 0%

Q: And the pest or weed control at 62 g/ha [1, 7]?
A: 0%

Q: What about the pest or weed control at 125 g/ha [1, 8] of the same compound?
A: 0%

Q: And the pest or weed control at 250 g/ha [1, 8]?
A: 0%

Q: And the pest or weed control at 31 g/ha ([2]; 31 g ai/ha, scale 0 to 100, 0 no effect, 100 complete control)?
A: 0%

Q: What about the pest or weed control at 62 g/ha ([2]; 62 g ai/ha, scale 0 to 100, 0 no effect, 100 complete control) of the same compound?
A: 0%

Q: What about the pest or weed control at 125 g/ha ([2]; 125 g ai/ha, scale 0 to 100) of the same compound?
A: 0%

Q: What about the pest or weed control at 250 g/ha ([2]; 250 g ai/ha, scale 0 to 100) of the same compound?
A: 0%

Q: And the pest or weed control at 31 g/ha ([3]; post-emergence, Postemergence, read-out: Plant response rating (scale of 0 to 100), Ragweed)?
A: 55%

Q: And the pest or weed control at 62 g/ha [3, 9]?
A: 75%

Q: And the pest or weed control at 125 g/ha [3, 9]?
A: 80%

Q: What about the pest or weed control at 250 g/ha ([3]; post-emergence, Postemergence, scale 0 to 100, read-out: Plant response rating, Ragweed) of the same compound?
A: 95%

Q: What about the pest or weed control at 31 g/ha [3, 10] of the same compound?
A: 0%

Q: What about the pest or weed control at 62 g/ha [3, 10] of the same compound?
A: 0%

Q: What about the pest or weed control at 125 g/ha [3, 11] of the same compound?
A: 0%

Q: What about the pest or weed control at 250 g/ha [3, 11] of the same compound?
A: 45%

Q: What about the pest or weed control at 125 g/ha [4, 12] of the same compound?
A: 0%

Q: And the pest or weed control at 31 g/ha ([4]; post-emergence, Postemergence, read-out: Plant response rating (scale of 0 to 100), Foxtail, Giant)?
A: 0%

Q: And the pest or weed control at 62 g/ha [4, 12]?
A: 0%

Q: And the pest or weed control at 250 g/ha ([4]; post-emergence, Postemergence, scale 0 to 100, read-out: Plant response rating, Foxtail, Giant)?
A: 0%

Q: What about the pest or weed control at 31 g/ha [4, 13] of the same compound?
A: 0%

Q: And the pest or weed control at 62 g/ha [4, 13]?
A: 0%

Q: What about the pest or weed control at 125 g/ha [4, 14] of the same compound?
A: 0%

Q: And the pest or weed control at 250 g/ha [4, 14]?
A: 0%

Q: What about the pest or weed control at 31 g/ha ([5]; post-emergence, Postemergence, read-out: Plant response rating (scale of 0 to 100), Johnsongrass) of the same compound?
A: 0%

Q: And the pest or weed control at 62 g/ha [5, 15]?
A: 0%

Q: And the pest or weed control at 125 g/ha [5, 15]?
A: 0%

Q: What about the pest or weed control at 250 g/ha ([5]; post-emergence, Postemergence, scale 0 to 100, read-out: Plant response rating, Johnsongrass) of the same compound?
A: 0%

Q: What about the pest or weed control at 31 g/ha [5, 16] of the same compound?
A: 0%

Q: And the pest or weed control at 62 g/ha [5, 16]?
A: 0%

Q: What about the pest or weed control at 125 g/ha [5, 17] of the same compound?
A: 0%

Q: And the pest or weed control at 250 g/ha [5, 17]?
A: 0%

Q: And the pest or weed control at 31 g/ha (kochia (Kochia scoparia); post-emergence, Postemergence, read-out: Plant response rating (scale of 0 to 100), Kochia)?
A: 20%

Q: What about the pest or weed control at 62 g/ha (kochia (Kochia scoparia); [18]) of the same compound?
A: 65%

Q: And the pest or weed control at 125 g/ha (kochia (Kochia scoparia); [18])?
A: 90%

Q: And the pest or weed control at 250 g/ha (kochia (Kochia scoparia); post-emergence, Postemergence, scale 0 to 100, read-out: Plant response rating, Kochia)?
A: 100%

Q: And the pest or weed control at 31 g/ha (kochia (Kochia scoparia); [19])?
A: 0%

Q: What about the pest or weed control at 62 g/ha (kochia (Kochia scoparia); [19]) of the same compound?
A: 0%

Q: And the pest or weed control at 125 g/ha (kochia (Kochia scoparia); [20])?
A: 20%

Q: What about the pest or weed control at 250 g/ha (kochia (Kochia scoparia); [20]) of the same compound?
A: 30%
